From article PMC11601558, “SLC6A19 inhibition facilitates urinary neutral amino acid excretion and lowers plasma phenylalanine” (JCI Insight, 2024)

Legend:
SLC6A19 = target: T1, SLC6A19 (Homo sapiens, UniProt Q695T7); experiment: SLC6A19 glutamine transport assay in human postmortem intestinal epithelial cells; type: cell-based; conditions: endogenous SLC6A19; geometric mean n = 5, 3 donors; 95% CI 33–197 nM
T1 construct: human intestinal epithelial cells with endogenous expression levels of SLC6A19; tissue AnaBios; host or cells: epithelial cells scraped from distal jejunum of human postmortem intestine (3 male donors)
Text: Human postmortem intestines from 3 male donors (ages 23–36 years) were provided by AnaBios. Following trimming of excess fat, the distal part of the jejunum was dissected into tissue sections of approximately 100 cm^2 and further processed on ice. These sections contained an estimated approximately 250 million epithelial cells ([28], [29]). Epithelial cells were scraped off each tissue section with a tissue scraper and collected in ice-cold Hank’s balanced salt solution (HBSS). Following centrifuging for 5 min at 300g at 4°C, the supernatant was aspirated and the cell pellet was washed 3–6 times by resuspending in ice-cold HBSS (Thermo Fisher Scientific). […]
Human postmortem epithelial cells isolated from small intestine were centrifuged for 5 minutes at 300g and 4°C and resuspended in Krebs buffer (140 mM sodium chloride, 4.7 mM KCl, 2.5 mM CaCl2, 1.2 mM MgCl2, 11 mM HEPES, 10 mM glucose, pH 7.4) at a density of 7.5 × 10^6 cells/mL. […] The uptake of 2,3,4-^3H–labeled L-glutamine was measured on a Microbeta^2 microplate counter (PerkinElmer).
IC50 values for transport inhibition in cells overexpressing SLC6A19 and TMEM27 were calculated using a 4-parameter logistic regression in Collaborative Drug Discovery (CDD). […] The IC50 values of individual experiments were calculated with a 3- or 4-parameter logistic regression using GraphPad Prism 9. […]

healthy volunteers = experiment: Urine amino acid excretion in healthy volunteers (pharmacodynamics); type: in vivo, human
Protocol: The effect of JNT-517 on plasma and urine AA levels was measured using an ultra-performance liquid chromatography mass spectrometry assay following 6-aminoquinolyl-N-hydroxysuccinimidyl carbamate (AQC) derivatization. For the SAD study, plasma samples were collected on day –1 and day 1 predose, as well as 24, 48, and 72 hours after dosing. A first morning void urine sample on Days –1 and 1 predose, as well as 2 pooled urine samples 0–8 hours after and 8–24 hours after dose were also collected following study drug administration. For the MAD study, plasma samples were collected on day –1, 1, 7, and 14 predose, as well as day 14, 24 hours after dosing. A first morning void urine samples on day –1, 1, 7, and 14 as well as 2 pooled urine samples 0–8 hours and 8–24 hours after dose on days 1, 7, and 14 were also collected following JNT-517 or placebo administration. Study participants in SAD and MAD cohorts were dosed in the morning following an overnight fast of at least 8 hours and were provided the following meals in relation to dosing times: breakfast after the morning dose, lunch 4 hours after morning dose, optional snack in the afternoon 8 hours after the morning dose and after the second dose for MAD cohorts dosed BID, dinner approximately 10 hours after the morning dose and at least 2 hours after the second dose for MAD cohorts dosed BID. Predose plasma amino acids were drawn after a minimum of 8 hours fasting overnight and after-dose levels were drawn after > 1.5 hours fasting. Resulting plasma and urine amino acid concentration measurements, as well a total amino acid excretion over a time period were summarized using appropriate descriptive statistics and compared with either predose levels or placebo-dose values. Tryptophan was not included in the amino acid panel due to analytical limitations.
IC50 values for transport inhibition in cells overexpressing SLC6A19 and TMEM27 were calculated using a 4-parameter logistic regression in Collaborative Drug Discovery (CDD). Reported IC50 values are geometric means of 4–6 independent experiments. For postmortem intestinal transport assays, single outliers of quadruplicate replicates were excluded from the calculation if a signal value’s distance to the mean exceeded 35% of the signal average. The IC50 values of individual experiments were calculated with a 3- or 4-parameter logistic regression using GraphPad Prism 9. The reported IC50 value represents the geometric mean of n = 5 experiments from 3 individual donors. Statistical comparison of urinary Phe excretion in Pah^enu2 mice treated with vehicle or JN-170 was conducted using 1-way analysis of variance (ANOVA) with Tukey’s post hoc comparison. Statistical analysis of baseline-adjusted plasma Phe in mice treated with vehicle or JN-170 was determined by 2-way ANOVA with Dunnett’s post hoc comparison. All statistical analyses were performed using GraphPad Prism 9. For clinical studies, group sizes were not determined based on statistical power calculations. Statistical significance of pharmacodynamic results was not assessed. Values are reported as mean (urinary Phe excretion, T1/2, Cl/F), geometric mean (Cmax/D, AUC0-inf/D), or median (Tmax).

T1 sequence (Q695T7 whole entry): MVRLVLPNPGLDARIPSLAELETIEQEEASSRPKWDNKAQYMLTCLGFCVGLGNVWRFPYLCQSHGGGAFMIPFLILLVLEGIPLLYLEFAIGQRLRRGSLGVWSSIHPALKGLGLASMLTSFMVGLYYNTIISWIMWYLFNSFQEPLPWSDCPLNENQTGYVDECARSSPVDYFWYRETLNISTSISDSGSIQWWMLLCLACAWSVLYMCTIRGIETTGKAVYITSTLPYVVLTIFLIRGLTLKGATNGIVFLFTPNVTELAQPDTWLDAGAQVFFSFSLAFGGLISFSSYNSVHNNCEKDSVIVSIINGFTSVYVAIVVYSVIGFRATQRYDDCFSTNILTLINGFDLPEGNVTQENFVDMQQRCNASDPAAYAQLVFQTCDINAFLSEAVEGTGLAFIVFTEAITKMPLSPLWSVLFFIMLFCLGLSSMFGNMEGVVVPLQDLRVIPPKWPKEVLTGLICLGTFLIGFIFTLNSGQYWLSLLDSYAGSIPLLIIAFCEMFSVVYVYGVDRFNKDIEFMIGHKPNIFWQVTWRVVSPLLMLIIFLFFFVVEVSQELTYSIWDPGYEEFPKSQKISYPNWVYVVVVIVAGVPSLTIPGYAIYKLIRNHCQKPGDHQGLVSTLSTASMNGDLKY
T1 sequence (Q9BYF1 18-805 partner): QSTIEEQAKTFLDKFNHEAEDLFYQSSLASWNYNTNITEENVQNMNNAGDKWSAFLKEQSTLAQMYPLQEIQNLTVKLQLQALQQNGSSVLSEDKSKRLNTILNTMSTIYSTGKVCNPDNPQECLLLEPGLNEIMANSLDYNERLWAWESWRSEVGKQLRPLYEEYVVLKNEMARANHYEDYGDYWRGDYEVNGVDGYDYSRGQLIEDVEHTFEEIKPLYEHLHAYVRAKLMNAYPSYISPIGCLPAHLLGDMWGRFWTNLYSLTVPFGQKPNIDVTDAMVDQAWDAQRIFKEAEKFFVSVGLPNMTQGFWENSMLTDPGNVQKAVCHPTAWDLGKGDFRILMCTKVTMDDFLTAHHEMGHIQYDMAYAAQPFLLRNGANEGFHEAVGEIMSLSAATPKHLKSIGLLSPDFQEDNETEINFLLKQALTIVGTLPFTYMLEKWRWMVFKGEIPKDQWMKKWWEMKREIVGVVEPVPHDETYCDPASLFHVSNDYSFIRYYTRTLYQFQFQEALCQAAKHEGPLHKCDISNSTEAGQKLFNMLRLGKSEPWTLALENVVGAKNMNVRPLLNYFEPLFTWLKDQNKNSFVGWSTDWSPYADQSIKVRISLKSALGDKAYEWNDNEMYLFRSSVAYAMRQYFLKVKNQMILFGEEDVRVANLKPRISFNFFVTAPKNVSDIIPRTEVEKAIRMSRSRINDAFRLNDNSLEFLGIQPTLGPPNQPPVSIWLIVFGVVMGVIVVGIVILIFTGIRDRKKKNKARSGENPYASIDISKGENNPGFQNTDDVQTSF

## NC(=O)N1CCC[C@@H](N(C(=O)NCc2ccc(OC(F)(F)F)cc2F)C2CC2)C1 [JNT-517]
SLC6A19
  IC50: 0.081 µM
Healthy volunteers; MAD day 14, 75 mg BID
  24 hour Phe excretion, mean ± SD: 89 ± 34 mg
  Phe excreted from 0–8 hours, mean ± SD: 32 ± 20 mg
  urine Phe excreted from 8–24 hours, mean ± SD: 56 ± 19 mg
Healthy volunteers; MAD day 14, 150 mg QD
  24 hour Phe excretion, mean ± SD: 72 ± 18 mg
  Phe excreted from 0–8 hours, mean ± SD: 53 ± 16 mg
  urine Phe excreted from 8–24 hours, mean ± SD: 20 ± 11 mg
Healthy volunteers; SAD 170 mg
  Phe excreted in urine over a 24 hour period, mean ± SD: 142 ± 30 mg
  increase in 24 hour urinary Phe vs placebo: approximately 14 fold
Healthy volunteers; SAD 170 mg, Supplemental Figure 6
  glutamine excreted in urine, mean ± SD: 1,904 ± 541 mg
